# Values of other authors, collected in patent US5668151A, “Dihydropyridine NPY antagonists: piperidine derivatives” (Bristol-Myers Squibb Company, priority 1996, dated 1997).
# Columns and labels:
# [1] = test system: rat femoral artery
# [2] = test system: NPY-induced Ca++ entry in HEL cells
Structure (SMILES),"effect on the vasoconstrictive activity of the NPY1 agonist [Leu31, Pro34]NPY [1]",effect on the NPY2 agonist NPY13-36 ([1]; Y2 receptor functional selectivity),pA2 [2]
N=C(N)N(CCCCCCNCc1ccc2ccccc2c1)CCCCCCN(CCCCCCNCc1ccc2ccccc2c1)C(=N)N [Example 6b],no effect,antagonized,–
N=C(NCCCc1cnc[nH]1)NCCC(c1cc(F)cc(F)c1)c1ccccn1 (stereo not drawn) [He 90481],–,–,4.43
